Source: the Kinase Knowledgebase extract (Sharma et al. 2016)

Target: CDK2 (human) (UniProt P24941)
Assay: Enzyme Assay
Conditions: concentration not given here

Structure (SMILES) | inhibition [%]
O=S(=O)(c1cccc2cnccc12)N1CCCNCC1 | 18

Target: MAPK14 (human) (UniProt Q16539)
Assay: Inhibition of MAPK14 Kinase Activity
Conditions: not given

Chain of MAPK14 (human) (Q16539 whole entry, looked up): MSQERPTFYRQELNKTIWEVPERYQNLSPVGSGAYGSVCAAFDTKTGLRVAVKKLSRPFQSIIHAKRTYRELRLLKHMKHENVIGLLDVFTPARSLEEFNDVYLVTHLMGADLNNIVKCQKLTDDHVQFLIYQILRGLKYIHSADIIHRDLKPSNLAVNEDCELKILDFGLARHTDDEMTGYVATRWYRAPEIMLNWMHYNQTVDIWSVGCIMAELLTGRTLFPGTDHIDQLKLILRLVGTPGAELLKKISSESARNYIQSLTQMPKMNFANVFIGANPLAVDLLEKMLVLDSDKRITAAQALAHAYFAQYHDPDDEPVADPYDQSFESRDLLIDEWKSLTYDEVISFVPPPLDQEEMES

Structure (SMILES) | IC50 [nM]
CC(C)Nc1ncc2cc(Oc3ccc(F)cc3F)ncc2n1 | < 500
CS(=O)(=O)N1CCC(Nc2ncc3cc(Oc4ccc(F)cc4F)ncc3n2)CC1 | < 50

Target: PIK3CA (human) (UniProt P42336)
Assay: Inhibition of PIK3CA Kinase Activity
Conditions: not given

Chain of PIK3CA (human) (P42336 whole entry, looked up): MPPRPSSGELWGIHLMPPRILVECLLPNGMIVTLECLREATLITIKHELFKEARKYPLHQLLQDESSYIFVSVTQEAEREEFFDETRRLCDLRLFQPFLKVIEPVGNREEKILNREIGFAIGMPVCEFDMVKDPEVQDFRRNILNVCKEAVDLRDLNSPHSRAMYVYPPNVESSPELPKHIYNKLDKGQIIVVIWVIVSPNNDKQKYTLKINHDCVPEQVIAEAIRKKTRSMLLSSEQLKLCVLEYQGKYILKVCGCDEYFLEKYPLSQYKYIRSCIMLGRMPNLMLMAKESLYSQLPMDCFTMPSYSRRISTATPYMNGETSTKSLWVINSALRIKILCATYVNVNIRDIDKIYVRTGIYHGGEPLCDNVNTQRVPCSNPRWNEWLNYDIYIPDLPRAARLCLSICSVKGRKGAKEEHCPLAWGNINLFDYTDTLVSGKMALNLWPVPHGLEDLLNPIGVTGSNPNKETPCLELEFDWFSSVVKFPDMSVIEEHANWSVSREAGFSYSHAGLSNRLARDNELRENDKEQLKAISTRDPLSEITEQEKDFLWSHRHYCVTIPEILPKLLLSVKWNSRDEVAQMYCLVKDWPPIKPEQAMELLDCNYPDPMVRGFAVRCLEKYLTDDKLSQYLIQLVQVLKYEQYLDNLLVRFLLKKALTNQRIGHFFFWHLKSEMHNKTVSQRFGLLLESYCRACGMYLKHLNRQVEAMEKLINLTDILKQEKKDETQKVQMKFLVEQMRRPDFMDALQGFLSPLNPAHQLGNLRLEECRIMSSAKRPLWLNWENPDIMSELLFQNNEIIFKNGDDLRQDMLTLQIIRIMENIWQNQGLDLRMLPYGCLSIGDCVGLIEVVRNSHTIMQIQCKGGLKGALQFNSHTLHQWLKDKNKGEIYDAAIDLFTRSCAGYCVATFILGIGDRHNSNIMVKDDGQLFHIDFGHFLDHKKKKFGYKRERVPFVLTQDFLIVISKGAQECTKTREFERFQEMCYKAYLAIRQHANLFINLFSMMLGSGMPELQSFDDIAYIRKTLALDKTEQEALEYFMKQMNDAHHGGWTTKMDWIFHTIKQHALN

Structure (SMILES) | IC50 [nM]
Nc1ncc(-c2ccc3nccc(-c4ccncc4)c3c2)cc1S(=O)(=O)Nc1ccc(F)cc1F | 1.2
CNC(=O)Nc1ccc(-c2nc(N3CC4CCC(C3)O4)c3cnn([C@H]4CC[C@H](O)CC4)c3n2)cc1 | 882
O=C1NCc2cncc(c2)-c2ncnc3c2SC(=C3)c2cncc(c2)NS(=O)(=O)c2cccc1c2 | 44
c1ccc(CN2CCC(n3ncc4c(N5CCOCC5)nc(-c5cc6ccccc6[nH]5)nc43)CC2)cc1 | 1110
CN(COC(=O)[C@@H]1CC(=O)c2coc3c2[C@@]1(C)c1ccc2c(c1C3=O)CCC2=O)c1ccc([N+](=O)[O-])c2nonc12 | 9.6
CC(C)(C)OC(=O)n1ccc2cc(CNc3cccc(Oc4cc(=O)[nH]c5ccccc45)c3)ccc21 | 11800
O=c1cc(Oc2cccc(NCc3ccc4[nH]ccc4c3)c2)c2ccccc2[nH]1 | 3420
CC(C)(C)CNc1ncccc1CNc1cccc(Oc2cc(=O)[nH]c3ccccc23)c1 | 10000
CN(C)CC=CC(=O)Nc1cccc(-c2cccc(Oc3cc(=O)[nH]c4ccccc34)c2)c1 | 12000
COc1ncc2cc1NS(=O)(=O)c1cccc(c1)C(=O)NCc1cncc(c1)-c1ccnc3[nH]c-2cc13 | 100 to 1000
COc1ccc2c(c1)c(C=C1Oc3cc(O)cc(O)c3C1=O)c(C)n2CCCN(C)C | 5
CC(=O)N1CCC(n2ncc3c(N4CCOCC4)nc(-c4cccc(O)c4)nc32)CC1 | 69
COc1ncc(-c2nn3c(-c4ccnnc4)cnc3s2)cc1NS(=O)(=O)c1ccc(F)cc1F | < 100
COc1ncc2cc1NS(=O)(=O)c1ccc(F)c(c1)C(=O)NCc1cncc(c1)-c1ccnc3c1SC2=C3 | 15
CN(C)c1ccc2c(COC(=O)[C@@H]3CC(=O)c4coc5c4[C@@]3(C)c3ccc4c(c3C5=O)CCC4=O)cc(=O)oc2c1 | 1.9
CNC(=O)Nc1ccc(-c2nc(N3CC4CCC(C3)O4)c3cnn([C@H]4CC[C@@H](O)CC4)c3n2)cc1 | 227
N[C@H]1CCC[C@@H](CC(=O)Nc2cccc(-c3nc(-c4cccc(CO)c4)cc(N4CCOCC4)n3)c2)C1 | 700
CN(C)CCCN1CCN(c2cccc(Oc3cc(=O)[nH]c4ccccc34)c2)CC1 | 10000
C=CCN(/C=C1/C(=O)O[C@H](COC)[C@@]2(C)C1=C(O)C(=O)C1=C2[C@H](OC(C)=O)C[C@]2(C)C(=O)CCC12)CC=C (stereo partly drawn) | 0.5
CS(=O)(=O)Nc1cccc(-c2nn3c(-c4cnc(N)c(C(F)(F)F)c4)cnc3s2)c1 | 28
N#Cc1cccc(-c2c[nH]c3ncc(-c4cnc(N)c(S(=O)(=O)N5CCOCC5)c4)cc23)c1 | 130
CNC(=O)Nc1ccc(-c2nc(N3CC4CCC(C3)O4)c3cnn([C@H]4CC[C@H](OC)CC4)c3n2)cc1 | 1170

Structure (SMILES) | IC50 [nM]
COc1ncc2cc1NS(=O)(=O)c1cccc(c1)C(=O)NCC(=O)NCc1cncc(c1)-c1cnc3sc-2nn13 | 100 to 1000
COC[C@H]1OC(=O)c2coc3c2[C@@]1(C)C1=C(C3=O)[C@@H]2CCC(=O)[C@@]2(C)C[C@H]1C(=O)OCN(C)c1ccc([N+](=O)[O-])c2nonc12 | 0.7
CC(C)(C)OC(=O)Nc1ccc(CNc2cccc(Oc3cc(=O)[nH]c4ccccc34)c2)cn1 | 10000
CN[C@H](C)c1ccc(S(=O)(=O)Nc2cc(-c3ccc4nc(NC(C)=O)cn4n3)cnc2Cl)cc1 | 6
Oc1cccc(-c2nc(N3CCOCC3)c3sccc3n2)c1 | 2
Cc1ccc([N+](=O)[O-])cc1S(=O)(=O)n1ccc(-c2c(C)nc3ccc(Br)cn23)n1 | 3
COc1ncc2cc1NS(=O)(=O)c1cccc(c1)C(=O)NCCN1CC=C(CC1)c1cnn3ccc-2nc13 | 20
c1cc(-c2nc(N3CCOCC3)c3sccc3n2)c2cn[nH]c2c1 | 40
COC[C@H]1OC(=O)c2coc3c2[C@@]1(C)C1=C(C3=O)[C@@H]2CC[C@H](C(=O)OCc3cc(=O)oc4cc(N(C)C)ccc34)[C@@]2(C)C[C@H]1OC(C)=O | 695
CN1CCC(Nc2cccc(-c3cccc(Oc4cc(=O)[nH]c5ccccc45)c3)c2)CC1 | 8310
C(#Cc1n[nH]c2ncccc12)c1ccccn1 | 9000
COC[C@H]1OC(=O)c2coc3c2[C@@]1(C)C1=C(C3=O)[C@@H]2CC[C@H](C(=O)OCN(C)c3ccc([N+](=O)[O-])c4nonc34)[C@@]2(C)C[C@H]1OC(C)=O | 225
C[C@]12C(=C(O)C(=O)c3c1ccc1c3CCC1=O)/C(=C/NCC(=O)O)C(=O)C[C@H]2OC(=O)CCC(=O)O | 44
O=c1cc(Oc2cccc(NCc3cnccc3N3CCOCC3)c2)c2ccccc2[nH]1 | 5620
O=C1Nc2ccccc2C(=C1)Oc3cccc(NCC4=CN(=CC=C4)[BH2-]C#N)c3 | 7380
CC1(C)CC(=O)C2=C(C1)Nc1c(c(C3CCCCC3)nn1-c1cccc(F)c1)C2c1ccc(C(F)(F)F)cc1 (stereo not drawn) | 8000
O=C(Nc1ccc(C(=O)NCCN2CCCC2)cc1)Nc1ccc(-c2nc(O[C@H]3CCOC3)nc(N3CCOCC3)n2)cc1 | 1.4
NC(=O)C1CCN(c2cccc(-c3nc(-c4cccc(O)c4)cc(N4CCOCC4)n3)c2)CC1 | 1000
CC(=O)c1c[nH]c2ncc(-c3cnc(N)c(S(=O)(=O)N4CCOCC4)c3)cc12 | 730
COc1ncc2cc1NS(=O)(=O)c1ccc(Cl)c(c1)C(=O)NCC1=CC=C(S1)c1ncnc3c1SC2=C3C | 0.1
O=C1C(=Cc2c[nH]c3ccc(Br)cc23)Oc2cc(O)cc(O)c21 | 422
COc1ccccc1C1C2=C(CC(C)(C)CC2=O)Nc2c1c(C(C)(C)C)nn2-c1ccc(Cl)c(Cl)c1 (stereo not drawn) | 7000

Target: MAPK14 (human) (UniProt Q16539)
Assay: Assessment of MAPK14 Kinase Activity
Conditions: not given

Structure (SMILES) | IC50 [nM]
CC(C)Nc1ncc2cc(Oc3ccc(F)cc3F)ncc2n1 | < 500
Cc1ccc(C(=O)NC2CC2)cc1Nc1ncc(C(=O)NCc2ccccc2)s1 | < 50
Cc1cccc(Nc2c(C(=O)N3CCNCC3)sc3c2ccc(=O)n3-c2c(F)cccc2F)n1 | 5 to 500
CC(C)Oc1n[nH]c2nc(Oc3ccc(F)cc3F)ncc12 | 165
O=C(Nc1ccc(Oc2ccnc(N3CCCC3)n2)c2ccccc12)c1cc(F)cc(N2CCCCC2)c1 | 41.9
CC(C)Nc1ncc2c(n1)N(CCS(C)(=O)=O)C(=O)N(c1ccccc1Cl)C2 | < 10000
Cc1c(NC(=O)Nc2nnc(C3CCCO3)s2)sc(CN2CCOCC2)c1Cl (stereo not drawn) | < 5000
Cc1c(NC(=O)Nc2cc(C(C)(C)C)nn2-c2ccc(F)cc2)sc(CN2CCOCC2)c1Cl | < 5000
Clc1ccc(-c2n[nH]c(N3CCCC4CCCCC43)c2-c2ccncc2)cc1 (stereo not drawn) | 40
CC(C)Nc1ncc2c(n1)N(CCO)C(=O)N(c1ccccc1Cl)C2 | < 10000
CS(=O)(=O)N1CCC(Nc2ncc3cc(Oc4ccc(F)cc4F)ncc3n2)CC1 | < 50
Cc1ccc(C(=O)NC2CC2)cc1Nc1nc(-c2cccc(CN)c2)c(C(=O)NCc2ccccc2)s1 | < 50
Cc1ccc(C(=O)NC2CC2)cc1Nc1nc(-c2ccccc2)cs1 | > 100
CSc1nc(-c2ccc(F)cc2)c(-c2ccnc(NC3CCCc4ccccc43)c2)[nH]1 (stereo not drawn) | 50
Cc1cccc(-c2nc(Nc3cc(C(=O)NC4CC4)ccc3C)sc2C(=O)NCc2ccccc2)c1 | 50 to 100
Cc1nc(-c2ccccc2)c(-c2ccncc2)o1 | 5160
Cc1ccc(C(=O)NC2CC2)cc1Nc1nc(-c2ccc3[nH]ccc3c2)c(C(=O)NCc2ccccc2)s1 | > 100
CC(C)(N)C(=O)OCCOc1cc(-c2ccccc2Cl)c2ccc(=O)n(-c3c(Cl)cccc3Cl)c2c1 | 0.12
Cc1ncccc1-c1nnc2c(F)c(-c3cc(C(=O)NC4CC4)cc(F)c3C)c(F)cn12 | 81
CSc1nc(-c2ccc(F)cc2)c(-c2ccnc(N(C)Cc3ccccc3)c2)[nH]1 | 870
CC(Oc1nncc2cc(Nc3ccc(F)cc3F)ccc12)C(F)(F)F (stereo not drawn) | 3.1

Structure (SMILES) | IC50 [nM]
CONC(=O)c1ccc(C)c(Nc2nnc(-c3ccccc3)[nH]2)c1 | < 50
Clc1ccc(-c2n[nH]c(N3CCN4CCC[C@H]4C3)c2-c2ccncc2)cc1 | 62
COCCN1C(=O)N(c2ccccc2Cl)Cc2cnc(NC(C)C)nc21 | < 10000
Cc1nn(-c2ccccc2)c(O)c1C(=O)c1ccccc1 | > 100000
Fc1cc(-c2[nH]c(SCc3ccccc3)nc2-c2cccc(C(F)(F)F)c2)ccn1 | 2950
Cc1n[nH]c(C)c1-c1nncc2nc(Nc3ccc(F)cc3F)ccc12 | 1.6
CN1CCN(c2[nH]nc(-c3ccc(Cl)cc3)c2-c2ccncc2)CC1 | 50
CONC(=O)c1ccc(C)c(Nc2noc(-c3ccccc3)n2)c1 | < 50
OC1CCCN(c2[nH]nc(-c3ccc(Cl)cc3)c2-c2ccncc2)C1 (stereo not drawn) | 190
CNc1nccc(-c2cccnc2Oc2ccc(Nc3nnc(-c4ccc(F)cc4)c4ccccc34)cc2)n1 | 1700
CSc1nc(-c2ccc(F)cc2)c(-c2ccnc(NC(C)C(C)(C)C)c2)[nH]1 (stereo not drawn) | 23
CC[C@@H](NC(=O)c1cn2ncnc(Nc3cc(NC(=O)c4cccc(N5CCOCC5)c4)ccc3C)c2c1C)OC | 12
Cc1cc(-c2cccc(C(=O)Nc3ccc(OCCN4CCOCC4)c4ccccc34)c2)ccc1F | 488
OC1CCN(c2[nH]nc(-c3ccc(Cl)cc3)c2-c2ccncc2)CC1 | 110
CCc1nc(-c2ccc(OC)cc2)[nH]c1-c1ccncc1 | 8200
CC1CCN(c2[nH]nc(-c3ccc(Cl)cc3)c2-c2ccncc2)CC1 | 130
Cc1nc(Nc2c(C(=O)N3CCC[C@@H]3CO)sc3c2ccc(=O)n3-c2c(F)cccc2F)ccc1F | 5 to 500
CON=C(c1ccccc1)c1cnn(-c2ccccc2)c1N | > 100000
N=C(N)c1ccc(Cn2c(=O)[nH]c3cc(C(=O)c4ccccc4)ccc32)cc1 | 130
Cc1cccc(Nc2c(C(=O)N3CCC[C@@H]3CO)sc3c2ccc(=O)n3-c2c(F)cccc2F)n1 | 15 to 30
O=C(Nc1ccc(OCCN2CCOCC2)c2ccccc12)c1cccc(C=Cc2ccccc2)c1 | > 10000

Same assay, conditions: concentration not given here

Structure (SMILES) | inhibition [%]
O=S(=O)(c1cccc2cnccc12)N1CCCNCC1 | -8
C[C@@H](N)[C@H]1CC[C@H](C(=O)Nc2ccncc2)CC1 | -3
CCn1c(-c2nonc2N)nc2cnc(Oc3cccc(NC(=O)c4ccc(OCCN5CCOCC5)cc4)c3)cc21 | -8
Cc1cncc2cccc(S(=O)(=O)N3CCCNC[C@@H]3C)c12 | -9
